The values below come from ChEMBL document CHEMBL5126539, “Recent development of BTK-based dual inhibitors in the treatment of cancers” (Eur J Med Chem, 2022).

The subject of assay [1] is DOHH-2. The experiment in a line: Cytotoxicity against human DOHH-2 cells expressing BTK and PI3kdelta assessed as inhibition of cell growth incubated for 72 hrs by celltiter-glo assay. Format: functional, cell-based. The note with it: DOHH-2, 72 h. In general terms: In ATP-based viability assays light output follows the ATP content of the culture.
The test system of assay [2] is DOHH-2. Kind of assay: Antitumor activity against human DOHH-2 cells xenografted in CB17/SCID mouse assessed as reduction in tumor growth at 100 mg/kg, po administered twice daily for 30 days and measured twice a week relative to control. It is filed as functional. Also on record: scale not given: the % may be the effect or the level left. As to conditions: time 30 day.

Assay [3] can be described thus: Inhibition of mTORC1 (unknown origin) expressed in HEK293T cells using 4EBP1 as substrate assessed as reduction in substrate phosphorylation preincubated for 30 mins followed by ATP addition and measured after 30 mins by Western blot analysis. Also on record: species or system Homo sapiens.
Assay [4] deals with T1, Tyrosine-protein kinase BTK (Homo sapiens, UniProt Q06187). The experiment in a line: Inhibition of BTK (unknown origin).
In assay [5] the target is Tyrosine-protein kinase HCK (Homo sapiens, UniProt P08631). Kind of assay: Inhibition of HCK (unknown origin).
Assay [6] relates to DOHH-2. The experiment in a line: Antitumor activity against human DOHH-2 cells xenografted in CB17/SCID mouse assessed as reduction in tumor growth at 25 mg/kg, po administered twice daily in combination with ibrutinib at 15 mg/kg for 30 days and measured twice a week relative to control. Format: functional. Also on record: scale not given: the % may be the effect or the level left. As to conditions: time 30 day.

Assay [7] relates to DOHH-2. The experiment in a line: Antitumor activity against human DOHH-2 cells xenografted in CB17/SCID mouse assessed as reduction in tumor growth at 50 mg/kg, po administered twice daily in combination with ibrutinib at 30 mg/kg for 30 days and measured twice a week relative to control. It is filed as functional. Also on record: scale not given: the % may be the effect or the level left. The note with it: time 30 day. On the technique in general: In xenograft studies the graft and the host belong to different species.

Assay [8] concerns the target T2, Tyrosine-protein kinase JAK3 (Homo sapiens, UniProt P52333).
T2 sequence (P52333 whole entry): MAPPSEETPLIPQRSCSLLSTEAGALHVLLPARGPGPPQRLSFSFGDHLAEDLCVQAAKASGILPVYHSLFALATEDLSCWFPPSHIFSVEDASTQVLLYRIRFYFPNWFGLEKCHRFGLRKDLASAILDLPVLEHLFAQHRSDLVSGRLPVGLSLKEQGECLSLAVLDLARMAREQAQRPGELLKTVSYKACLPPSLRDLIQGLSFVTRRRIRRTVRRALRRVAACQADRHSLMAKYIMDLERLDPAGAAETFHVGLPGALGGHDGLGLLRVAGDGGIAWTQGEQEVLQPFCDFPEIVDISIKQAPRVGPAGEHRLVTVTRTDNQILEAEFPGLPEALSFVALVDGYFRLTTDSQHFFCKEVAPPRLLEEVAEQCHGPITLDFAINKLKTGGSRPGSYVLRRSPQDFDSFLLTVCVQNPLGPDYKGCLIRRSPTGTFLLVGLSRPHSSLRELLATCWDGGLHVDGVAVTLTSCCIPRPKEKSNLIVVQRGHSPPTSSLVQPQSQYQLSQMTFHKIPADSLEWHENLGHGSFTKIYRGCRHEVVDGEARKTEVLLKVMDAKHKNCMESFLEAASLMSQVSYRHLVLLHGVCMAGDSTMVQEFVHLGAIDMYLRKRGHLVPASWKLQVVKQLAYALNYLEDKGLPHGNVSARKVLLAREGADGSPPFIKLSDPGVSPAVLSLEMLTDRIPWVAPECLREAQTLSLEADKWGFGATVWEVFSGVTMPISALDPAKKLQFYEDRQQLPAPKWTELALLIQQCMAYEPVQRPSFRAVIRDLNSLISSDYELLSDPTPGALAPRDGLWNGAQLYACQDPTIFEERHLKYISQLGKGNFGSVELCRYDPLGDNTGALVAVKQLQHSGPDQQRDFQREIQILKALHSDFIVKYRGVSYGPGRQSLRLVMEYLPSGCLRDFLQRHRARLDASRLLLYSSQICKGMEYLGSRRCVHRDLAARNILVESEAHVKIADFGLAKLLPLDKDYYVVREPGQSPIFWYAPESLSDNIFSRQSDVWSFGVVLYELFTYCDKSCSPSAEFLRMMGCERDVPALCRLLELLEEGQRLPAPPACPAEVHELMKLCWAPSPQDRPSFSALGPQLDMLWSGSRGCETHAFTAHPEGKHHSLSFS
The experiment in a line: Inhibition of recombinant JAK3 (unknown origin).

Assay [9] concerns the target T1, Tyrosine-protein kinase BTK. The experiment in a line: Inhibition of N-terminal His tagged human recombinant full length BTK expressed in baculovirus infected Sf9 insect cells using Poly (4:1 Glu, Tyr) Peptide as substrate at 0.5 uM incubated for 60 mins by ADP-glo reagent based luminescence assay relative to control. A general note: ADP-Glo turns the ADP formed in a reaction into a luminescent signal.

In assay [10] the target is Tubulin (Homo sapiens) (UniProt P68371+Q9H4B7+P0DPH7+P68366+Q13509+Q71U36+P04350+Q3ZCM7+P07437+P68363+Q9BQE3+Q6PEY2+Q13885+Q9BVA1+Q9BUF5). Kind of assay: Inhibition of microtubule polymerization in human U-266 cells assessed as increase in phospho-Bcl2 expression at 10 uM measured upto 24 hrs by Western blot analysis relative to control. It is filed as cell-based.
Assay [11] is described as follows: Cytotoxicity against human MM.1 cells assessed as inhibition of cell growth incubated for 48 hrs by MTT assay. Format: functional, cell-based. The note with it: Mm1, 48 h.
The test system of assay [12] is U-266. The experiment in a line: Cytotoxicity against human U-266 cells assessed as inhibition of cell growth incubated for 48 hrs by MTT assay. It is filed as functional, cell-based. The note with it: U-266, 48 h.
The subject of assay [13] is RPMI-8226. The experiment in a line: Cytotoxicity against human RPMI-8226 cells assessed as inhibition of cell growth incubated for 48 hrs by MTT assay. The note with it: RPMI-8226, 48 h. It is filed as functional, cell-based.
Assay [14] relates to U-266. Kind of assay: Antitumor activity against human U-266 cells xenografted in BALB/c nude mouse assessed as tumor growth inhibition at 1 mg/kg, ip administered twice weekly and measured for 4 weeks by digital caliper analysis relative to control. Format: functional. As to conditions: U-266, 672 h, read-out: TGI.
In assay [15] the test system is MV4-11. Kind of assay: Antiproliferative activity against human MV4-11 cells assessed as inhibition of cell growth. Format: functional, cell-based.
The subject of assay [16] is MOLM-13. The experiment in a line: Antiproliferative activity against human MOLM-13 cells assessed as inhibition of cell growth. It is filed as functional, cell-based.
The subject of assay [17] is BaF3. The experiment in a line: Antiproliferative activity against mouse BaF3 cells expressing wild type FLT3 assessed as inhibition of cell growth. Format: functional, cell-based.
Assay [18] deals with BaF3. Kind of assay: Antiproliferative activity against mouse BaF3 cells expressing […] FLT3 ITD mutant assessed as inhibition of cell growth. It is filed as functional, cell-based.
Assay [19] has as its system BaF3. Kind of assay: Antiproliferative activity against mouse BaF3 cells expressing […] FLT3 […] mutant assessed as inhibition of cell growth. Format: functional, cell-based.
Assay [20] relates to BaF3. The experiment in a line: Antiproliferative activity against mouse BaF3 cells expressing […] FLT3 ITD/[…] double mutant assessed as inhibition of cell growth. Format: functional, cell-based.
Assay [21] relates to BaF3. The experiment in a line: Antiproliferative activity against mouse BaF3 cells expressing […] FLT3 ITD F691L mutant assessed as inhibition of cell growth. Format: functional, cell-based.
For assay [22], the system named is DOHH-2. Kind of assay: Antitumor activity against human DOHH-2 cells xenografted in CB17/SCID mouse assessed as reduction in tumor growth at 15 mg/kg, po administered once daily in combination with idelalisib at 25 mg/kg for 30 days and measured twice a week relative to control. It is filed as functional. More on the design: scale not given: the % may be the effect or the level left. As to conditions: time 30 day.

Assay [23] deals with DOHH-2. Kind of assay: Antitumor activity against human DOHH-2 cells xenografted in CB17/SCID mouse assessed as reduction in tumor growth at 30 mg/kg, po administered once daily in combination with idelalisib at 50 mg/kg for 30 days and measured twice a week relative to control. Also on record: scale not given: the % may be the effect or the level left. It is filed as functional. As to conditions: time 30 day.

Assay [24] concerns the target T3, Cytoplasmic tyrosine-protein kinase BMX (Homo sapiens) (UniProt P51813).
T3 sequence (whole entry): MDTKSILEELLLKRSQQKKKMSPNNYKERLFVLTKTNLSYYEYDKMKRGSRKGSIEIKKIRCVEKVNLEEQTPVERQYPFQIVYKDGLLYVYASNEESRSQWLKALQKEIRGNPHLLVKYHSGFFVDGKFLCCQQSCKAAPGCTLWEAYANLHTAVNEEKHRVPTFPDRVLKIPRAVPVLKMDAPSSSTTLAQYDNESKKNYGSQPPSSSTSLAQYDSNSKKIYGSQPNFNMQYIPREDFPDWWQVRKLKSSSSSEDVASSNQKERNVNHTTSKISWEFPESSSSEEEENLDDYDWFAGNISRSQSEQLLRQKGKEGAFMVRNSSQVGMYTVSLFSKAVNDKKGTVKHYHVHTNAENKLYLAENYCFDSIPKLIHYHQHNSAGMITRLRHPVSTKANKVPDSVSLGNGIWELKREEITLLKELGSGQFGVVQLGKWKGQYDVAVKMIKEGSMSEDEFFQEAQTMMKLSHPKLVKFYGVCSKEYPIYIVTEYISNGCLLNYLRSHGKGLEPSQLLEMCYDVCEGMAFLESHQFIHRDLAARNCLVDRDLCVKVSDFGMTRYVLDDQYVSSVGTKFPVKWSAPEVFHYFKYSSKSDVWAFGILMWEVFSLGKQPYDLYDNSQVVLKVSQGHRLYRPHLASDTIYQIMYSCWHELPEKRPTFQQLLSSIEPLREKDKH
Kind of assay: Inhibition of BMX (unknown origin) assessed as residual activity at 200 nM relative to control.

The target in assay [25] is T1, Tyrosine-protein kinase BTK. The experiment in a line: Inhibition of BTK (unknown origin) assessed as residual activity at 200 nM relative to control.
Assay [26] shares this target. Kind of assay: Inhibition of N-terminal His6-tagged human full length recombinant BTK expressed in baculovirus infected Sf21 insect cells using YIYGSFK as substrate preincubated for 5 mins followed by 33p-labeled ATP addition and measured after 1 hr by thin layer chromatography.
Assay [27] relates to PC-3. Kind of assay: Antitumor activity against human PC-3 cells xenografted in nude mouse assessed as inhibition of tumor growth at 10 mg/kg/day, ip administered for 42 days starting from 14 days post inoculation relative to control. It is filed as functional. As to conditions: PC-3, 1008 h, time 42 day, read-out: TGI.

The structures appear in SMILES notation. pIC50: −log10 of the molar value. Some results are limits rather than exact numbers.

T1 sequence (Q06187 whole entry): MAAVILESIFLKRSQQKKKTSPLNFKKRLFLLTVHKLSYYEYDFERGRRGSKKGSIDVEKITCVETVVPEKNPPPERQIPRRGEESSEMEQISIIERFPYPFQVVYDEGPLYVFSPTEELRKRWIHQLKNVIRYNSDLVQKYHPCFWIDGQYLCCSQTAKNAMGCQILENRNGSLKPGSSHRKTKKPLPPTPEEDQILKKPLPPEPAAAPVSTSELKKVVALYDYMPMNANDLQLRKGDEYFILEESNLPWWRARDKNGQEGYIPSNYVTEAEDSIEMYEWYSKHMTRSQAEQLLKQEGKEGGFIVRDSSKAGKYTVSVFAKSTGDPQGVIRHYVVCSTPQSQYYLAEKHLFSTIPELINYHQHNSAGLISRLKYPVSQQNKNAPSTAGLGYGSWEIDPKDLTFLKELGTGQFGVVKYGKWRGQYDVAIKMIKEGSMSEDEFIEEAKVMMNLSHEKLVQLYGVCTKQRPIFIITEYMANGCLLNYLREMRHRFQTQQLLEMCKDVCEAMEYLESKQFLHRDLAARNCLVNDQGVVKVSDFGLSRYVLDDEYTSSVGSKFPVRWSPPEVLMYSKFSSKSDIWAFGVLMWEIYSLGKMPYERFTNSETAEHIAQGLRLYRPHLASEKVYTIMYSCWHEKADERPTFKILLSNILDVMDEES
Chain of Tyrosine-protein kinase HCK (P08631 whole entry): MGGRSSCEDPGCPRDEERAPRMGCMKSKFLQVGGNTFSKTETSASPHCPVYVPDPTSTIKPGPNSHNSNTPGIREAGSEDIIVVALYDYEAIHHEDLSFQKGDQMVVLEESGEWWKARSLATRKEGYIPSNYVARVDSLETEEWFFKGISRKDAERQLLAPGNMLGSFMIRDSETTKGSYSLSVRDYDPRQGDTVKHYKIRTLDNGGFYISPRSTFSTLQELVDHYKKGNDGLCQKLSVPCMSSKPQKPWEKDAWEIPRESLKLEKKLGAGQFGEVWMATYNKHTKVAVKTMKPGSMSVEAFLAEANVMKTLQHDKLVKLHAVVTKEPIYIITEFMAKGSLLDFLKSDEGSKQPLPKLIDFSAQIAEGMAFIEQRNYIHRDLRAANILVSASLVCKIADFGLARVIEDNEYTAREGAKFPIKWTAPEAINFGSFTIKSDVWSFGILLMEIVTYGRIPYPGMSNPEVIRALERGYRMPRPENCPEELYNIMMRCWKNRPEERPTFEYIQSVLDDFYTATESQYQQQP

Turning to `Nc1ccc2c(c1)CC(n1nc(-c3cc(F)c4c(c3)NCCO4)c3c(N)ncnc31)C2` (stereo unspecified), the pIC50 (commonly −log10 of the IC50, conventionally taken in molar units) in assay [1] was 5.87. Also, the Activity in assay [2] is recorded as 45.2%.
Consider `Nc1ccc(-c2ccc3ncc4ccc(=O)n(-c5cccc(C(F)(F)F)c5)c4c3c2)cn1`, for which the negative-log IC50 (pIC50) in [3] was 9.60.
Regarding `CN1CCN([C@H]2CC[C@H](n3nc(-c4ccc(Oc5ccccc5)cc4)c4c(N)ncnc43)CC2)CC1`, the pIC50 in [4] is 9.04; in assay [5], above 9.30.
For the molecule `CC[C@H](Nc1ncnc2[nH]cnc12)c1nc2cccc(F)c2c(=O)n1-c1ccccc1` [IDELALISIB], the pIC50 in [1] is 6.07. Also, the Activity in [6] was 38.1%; in assay [7], 57.9%.
For the molecule `C=CC(=O)Nc1cccc(-c2c[nH]c3ncc(NC(=O)c4cccs4)cc23)c1`, the pIC50 in [8] was below 5.00; in assay [4], above 9.00.
With `N#CSCc1ccc(CN2C(=O)C(=O)c3cc(Br)cc(Br)c32)cc1`, the inhibition – broadly, the percentage by which the read-out fell short of the control – in [9] was determined as 50%; in assay [10] it was 77%. Further, the pIC50 in [11], in [12] and in assay [13] was 6.30 in each case. The inhibition in vivo at 1 mg/kg in [14] is 50%.
With `Cc1cnc(-c2ccc(-c3ccc(NC(=O)Nc4cccc(C(F)(F)F)c4)cc3F)c3c2C(=O)NC3)[nH]1`, the pIC50 in assay [15] is 9.77; in assay [16], 9.09; in assay [17], 8.02; in [18] it was 9.52; in assay [19] it was 8.08; in assay [20] it was 8.01. The pIC50 in assay [21] was 9.37.
Consider `CC[C@]1(O)C[C@@H]2CN(CCc3c([nH]c4ccccc34)[C@@](C(=O)OC)(c3cc4c(cc3OC)N(C)[C@H]3[C@@](O)(C(=O)OC)[C@H](OC(C)=O)[C@]5(CC)C=CCN6CC[C@]43[C@@H]65)C2)C1`, for which the inhibition in [10] stood at 66%.
On to `C=CC(=O)N1CCC[C@@H](n2nc(-c3ccc(Oc4ccccc4)cc3)c3c(N)ncnc32)C1` [IBRUTINIB], for which the pIC50 in assay [1] is 7.64. Further, the Activity was 38.1% in assay [22] and 57.9% in [23].
In the case of `C=CC(=O)Nc1cccc(-c2c[nH]c3ncccc23)c1`, the results for the Activity in assay [24] and in [25] were 2.7% and 18.2%, respectively.
As for `CC(C)Cc1nc2cc3c(cc2[nH]c1=O)nc(NC(=O)c1ccc(-c2ccncc2)cc1)n3CCCN1CCCCC1`, the pIC50 in [26] was 7.30. Moreover, in assay [27], the inhibition in vivo at 10 mg/kg/day amounted to 70%.
